Assay results: patent US12521353B1, “Encapsulated resveratrol (RSV) nanoparticles” (priority 2024, dated 2026)
Entries after “also recorded” stand apart in the source; their conditions may differ.

Columns and labels:
Assay type in all cases: in vivo
[1] = tested on: Bcl-2; assay: IHC assay of apoptosis-related factor Bcl-2 in testis of rats exposed to ZEA; settings: rat testis
From the text: (§1) As described herein, the therapeutic efficacy of the encapsulated RSV nanoparticles can be evaluated based on immunohistochemical assessment of apoptosis-related factors (Bax and Bcl-2) in the testis and the gene expression of constitutive androstane receptor (CAR), a well-known xenobiotic-sensing nuclear receptor in the liver, of rats exposed to a fungal mycotoxin, zearalenone (ZEA). The encapsulated RSV nanoparticles reversed the toxic effects of the mycotoxin, as reflected by intense Bcl-2 immunoreactivity and negligible Bax immunoreactivity. Further, the expression of the CAR gene was enhanced by treatment with the present RSV nanoparticles.
(§2) Testes sections stained immunohistochemically against Bcl-2 was noticeably higher (brown color) in control group that received distilled water (FIG. 5A), compared with the group that received 0.1 mg/kg of ZEA that have almost no Bcl-2 immunoreactivity (FIG. 5B). […] High Bcl-2 immunoreactivity was detected in the groups that received 10 mg/kg RSV or 10 mg/kg RSV NPs (FIGS. 5E and 5F).

[2] = tested on: Bax; assay: IHC assay of apoptosis-related factor Bax in testis of rats exposed to ZEA; settings: rat testis
From the text: as §1
(§3) IHC assay was conducted to estimate the toxic impact of ZEA and the ameliorative effect of RSV and its nano-formulation on the expression of apoptosis-related factors (Bax and Bcl-2).

[3] = tested on: apoptosis-related factors (Bax and Bcl-2); assay: Overall immunohistochemical assessment of apoptosis-related factors (Bax and Bcl-2), mycotoxin-induced apoptosis in rat testis; settings: testis of rats exposed to ZEA and treated
From the text: as §1, §3
as §2, with “5F). […]” for “5F).”

[4] = 0.1 mg/kg ZEA + 10 mg/kg treatment
[5] = 10 mg/kg alone, no ZEA, 10 mg/kg

| SMILES | Bcl-2 immunoreactivity ([1]; 0.1 mg/kg ZEA alone, 0.1 mg/kg) | Bax immunoreactivity ([2]; 0.1 mg/kg ZEA alone) | Bcl-2 immunoreactivity [1, 4] | Bcl-2 immunoreactivity [1, 5] | effect on apoptosis induced by the mycotoxin (expression of Bax and Bcl-2 factors) [3] | Bax immunoreactivity [2, 4] | Bax immunoreactivity [2, 5] |
| --- | --- | --- | --- | --- | --- | --- | --- |
| C[C@H]1CCCC(=O)CCC/C=C/c2cc(O)cc(O)c2C(=O)O1 [ZEA, zearalenone] | weak and almost no | intense |  |  |  |  |  |
| Oc1ccc(C=Cc2cc(O)cc(O)c2)cc1 [RSV, Resveratrol] |  |  | moderate | intense and High | effectively reduced | moderate to low | negative; also recorded: Almost no |
